Results taken from patent US20170304288A1, “Formulations of Methionine Aminopeptidase Inhibitors for Treating Infectious Diseases” (Texas Southern University, priority 2013, published 2017).

What was measured:
[1] = test system: Pseudomonas aeruginosa (PA14); test: Screening against P. aeruginosa in LB and SK media
[2] = Stability in plasma and urine samples for LC-MS/MS analysis; assay type: in vitro ADME, rat
Method: The short-term (bench-top) stability of compound 5 in plasma and urine samples was evaluated by analyzing three sets each of freshly prepared plasma and urine samples containing compound 5 and placed them on the bench-top for 2, 4, and 6 h, respectively or at −80° C. for 14 days. All the samples were compared with freshly prepared samples of the same concentration.
The stability of compound 5 in processed samples (on-instrument or auto-sampler stability) was also evaluated by comparing freshly prepared plasma and urine QC samples to similar samples placed on the auto-sampler for 2, 4, and 6 h respectively. One set of the plasma and urine QC samples was extracted with acetonitrile containing IS, and the other set with pure acetonitrile without IS.

[3] = test system: E. faecalis OG1RF; test: Bacterial viability (CFU) in infected nematodes after treatment; assay type: in vivo, Enterococcus faecalis; details: 4×10^−11 μg/mL, after three days of treatment
Method: Young Adult nematodes sequentially preinfected with E. faecalis for 5 h. The nematodes were washed three times with sterile […] and collected by centrifugation between each wash and then transferred into tubes. […] The nematodes were washed twice in 25 mM Tetramisole and transferred to 6 well plates containing 20% BHI and the inhibitors to recover for 48 h and 72 h. After recovery time elapsed, nematodes were then transferred into an eppendorf tube containing 200 μl of M9 and ground using motorized pestle for 1 min and tube was briefly vortexed.

[4] = test system: E. faecalis V583; test: Liquid-based C. elegans infection model, survival

Oc1c(Br)cc(Cl)c2cccnc12 [Compound 5, 7-bromo-5-chloroquinolin-8-ol]
MIC ([1]; PA14, read-out: MIC30 P. aeruginosa): < 2.5 µg/mL
inhibition at 2.5 µg/mL ([1]; PA14, read-out: inhibition of P. aeruginosa): ~80%
Processed sample or Auto-sampler stability No IS ([2]; Plasma, 2 hr): 97.8 ± 1.11
Processed sample or Auto-sampler stability With IS ([2]; Plasma, 2 hr): 95.9 ± 1.87
Short-term Stability ([2]; Plasma, 2 hr bench-top): 91.6 ± 4.06
Processed sample or Auto-sampler stability No IS ([2]; Plasma, 4 hr): 97.1 ± 5.42
Processed sample or Auto-sampler stability With IS ([2]; Plasma, 4 hr): 94.7 ± 4.20
Short-term Stability ([2]; Plasma, 4 hr bench-top): 95.1 ± 3.24
Processed sample or Auto-sampler stability No IS ([2]; Plasma, 6 hr): 95.5 ± 6.69
Processed sample or Auto-sampler stability With IS ([2]; Plasma, 6 hr): 97.3 ± 5.55
Short-term Stability ([2]; Plasma, 6 hr bench-top): 93.7 ± 1.17
Short-term Stability ([2]; Plasma, 14 days at −80° C.): 91.3 ± 5.45
Processed sample or Auto-sampler stability No IS ([2]; Urine, 2 hr): 92.3 ± 1.32
Processed sample or Auto-sampler stability With IS ([2]; Urine, 2 hr): 102.1 ± 1.35
Short-term Stability ([2]; Urine, 2 hr bench-top): 94.4 ± 1.83
Processed sample or Auto-sampler stability No IS ([2]; Urine, 4 hr): 92.8 ± 2.31
Processed sample or Auto-sampler stability With IS ([2]; Urine, 4 hr): 99.5 ± 1.89
Short-term Stability ([2]; Urine, 4 hr bench-top): 93.2 ± 4.10
Processed sample or Auto-sampler stability No IS ([2]; Urine, 6 hr): 94.2 ± 1.59
Processed sample or Auto-sampler stability With IS ([2]; Urine, 6 hr): 103.2 ± 2.33
Short-term Stability ([2]; Urine, 6 hr bench-top): 95.6 ± 1.44
Short-term Stability ([2]; Urine, 14 days at −80° C.): 101.6 ± 4.29
drop in CFU [3]: 50 fold
MPC (Minimum Protective Concentration) V583 [4]: 4e-12 µg/mL
